Test results reported in PMC9945734 (BMC Medicine, 2023).

Tests used:
PC-3-KQ-Luc cells = test: Bone metastasis assay, therapy mode; format: in vivo, Balb/c nude mice
Description: Male Balb/c nude mice at 3-4 weeks old were purchased from Charles River (Beijing, China). Upon arrival at the Animal Center of the Southern University of Science and Technology (SUSTech), mice were quarantined for one week before use. All mice were maintained and handled following the National Institutes of Health guide for the Care and Use of Laboratory Animals. […] The tumor growth and body weight were measured each week. […] Tumor growth in the bone was determined once a week by in vivo BL imaging using the Living Image Software 4.4 (IVIS Spectrum, PerkinElmer Health Sciences, Massachusetts, USA). Ten minutes after intraperitoneal injection of D-luciferin sodium salt (15 mg/mL, 10 μL/g BW) (GM-040611, Genomeditech, Shanghai, China), bioluminescence images were acquired with the following conditions: open emission filter, exposure time = 60 s, binning = medium: 8, field of view = 12.9 ×12.9 cm, and f/stop = 1. Images were then analyzed using the Living Image 4.4 software (PerkinElmer). At the end of treatment, bioluminescence intensities were measured by photon flux of the region of interest (ROI) and compared between the vehicle and NTZ treatment groups. […] CC0113, […] Biotechnology, Beijing, China) was used as vehicle control, and NTZ was solved in CMC. NTZ was delivered into mice via intragastric administration (100 mg/kg BW) every day. After the sacrifice of mice, hind limbs were removed and fixed in 4% paraformaldehyde for 48 h. Limbs were then scanned using a micro-CT scanner (Skyscan1276, Bruker, Kontich, Belgium). For micro-CT imaging, the scan parameters were: source voltage, 60 kV; source current, 100 μA; AI 0.5 mm filter; pixel size, 10 μm; rotation step, 0.4 degrees. The images were then processed and constructed using the NRecon software (Version 1.7.1.6, Bruker) and converted using […] (Version 1.5.4, Bruker). The region of interest (ROI), set at 0.5 mm from the femur growth plate, was analyzed using the CT-Analyser (CTAn) program. Parameters included bone volume/total volume (BV/TV), trabecular number (Tb.N), trabecular separation (Tb.Sp), and trabecular thickness (Tb.Th). Finally, the 3D images were performed in CTvox software (Version 2.0, Bruker). Femurs were decalcified in ethylenediaminetetraacetic (EDTA) decalcification solution (Cat #: R20403-5L, OKA, Beijing, China) for 14-21 days. After decalcification, bone tissues were dehydrated in gradient ethanol from 70 to 95%, soaked in n-butanol for 6 h, and then embedded in paraffin. Tissue blocks were cut into 4 μm sections. After baking in an oven at 63°C for 1.5 h, tissue slides were deparaffinized with xylene, hydrated with gradient ethanol, and then stained with H&E (Cat #: BA4025, BaSO, Zhuhai, China). Slides were then mounted for analysis with neutral resins (Cat #: 25608-33-7, Sigma-Aldrich, MO, USA).

[1] = tested on: osteoclasts in mouse femurs; test: TRAP staining of bone tissue sections; format: in vivo, Balb/c nude mice; conditions: compared to the vehicle group
Description: The procedure for TRAP staining in tissues was described in our previous study. Briefly, deparaffinized and hydrated bone sections were incubated in 0.2 M acetic acid for 20 min and then in 0.2 M acetic acid containing the fast red TR salt (1.1 mg/mL) and naphthol AS-MX phosphate (0.5 mg/mL) for about 45 min at 37°C. When TRAP-positive cells turn red, as monitored using microscopy, slides were counterstained with hematoxylin and mounted with coverslips using glycerin. Slides were then scanned and analyzed as described above.

DU 145-KQ cells = test: Clone formation assay; format: cell-based, human; conditions: 0-20 μM, 8 days
Description: (§1) PC-3-KQ and DU 145-KQ cells were seeded onto 6-well plates at 1 × 10^3 cells/well. After incubation for 24 h, PC-3-KQ cells were treated with NTZ at 0, 1.25, 2.5, and 5 μM, while DU 145-KQ cells were treated with NTZ at 0, 5, 10, and 20 μM for 8 days. The drug-containing medium was replaced every 2 days. On the 8th day, cells were rinsed with cold PBS, fixed with 4% paraformaldehyde for 10 min, stained with purple crystal for 10 min, and photographed, and the images were analyzed using the Image J software.

PC-3-KQ cells = test: Clone formation assay; format: cell-based, human; conditions: 0-5 μM, 8 days
Description: as §1

RAW264.7 cells = test: Osteoclast differentiation with conditioned medium from NTZ-treated PC-3-KQ cells; format: cell-based; conditions: CM from PC-3-KQ cells treated at 2.5 or 5 μM for 36 h; RANKL 10 ng/mL; 7 days
Description: In the second in vitro assay, we used conditioned medium (CM) from NTZ-treated Ac-KLF5-expressing cells. PC-3-KQ cells were seeded in 6-well plates at 1 × 10^5 cells per well and cultured overnight. […] Subsequently, the conditioned media (CM) was collected from each group, centrifugated, filtered, aliquoted, and stored at -80°C for further use or used immediately in the co-cultured experiments. […] RAW264.7 cells in 96-well plates with 24-h culture were incubated with the CM-containing medium for 7 days, with the medium replaced every 2 days. The TRAP staining assay was performed to determine the number of differentiated osteoclasts according to the manufacturer's instructions.

KLF5^K369R protein = biological target: T1, KLF5^K369R protein (Homo sapiens, UniProt Q13887, K369R); test: Fluorescence titration (quenching) of KLF5 protein; conditions: read-out: binding constant Kd
T1 construct: made in house; host or cells: E. coli BL21 DE3
Description: (§2) Wild-type or mutant KLF5 protein at 1 μM in 2 mL PBS was measured for fluorescence spectrum using a fluorescence spectrometer (HORIBA, Kyoto, Japan), and the fluorescence spectra were obtained for wavelengths of 300–500 nm. NTZ with various concentration ranges and various increments were used in the analysis, including 0.1–1 μM with an increment of 0.1 μM, 1–5 μM with an increment of 0.5 μM, 5–10 μM with an increment of 1 μM, and 10–30 μM with an increment of 5 μM. The incubation with NTZ was for 5 s at room temperature. Data were processed and fitted to obtain the binding affinities using the Origin software (OriginLab, Northampton, MA, USA), and Kd values were determined by the responses at […] wavelength.

KLF5^K369Q protein = biological target: T2, KLF5^K369Q protein (Homo sapiens, UniProt Q13887, K369Q); test: Fluorescence titration (quenching) of KLF5 protein; conditions: read-out: binding constant Kd
T2 construct: made in house; host or cells: E. coli BL21 DE3
Description: as §2

[2] = 100 mg/kg intragastric every day

T1 sequence (Q13887 whole entry K369R): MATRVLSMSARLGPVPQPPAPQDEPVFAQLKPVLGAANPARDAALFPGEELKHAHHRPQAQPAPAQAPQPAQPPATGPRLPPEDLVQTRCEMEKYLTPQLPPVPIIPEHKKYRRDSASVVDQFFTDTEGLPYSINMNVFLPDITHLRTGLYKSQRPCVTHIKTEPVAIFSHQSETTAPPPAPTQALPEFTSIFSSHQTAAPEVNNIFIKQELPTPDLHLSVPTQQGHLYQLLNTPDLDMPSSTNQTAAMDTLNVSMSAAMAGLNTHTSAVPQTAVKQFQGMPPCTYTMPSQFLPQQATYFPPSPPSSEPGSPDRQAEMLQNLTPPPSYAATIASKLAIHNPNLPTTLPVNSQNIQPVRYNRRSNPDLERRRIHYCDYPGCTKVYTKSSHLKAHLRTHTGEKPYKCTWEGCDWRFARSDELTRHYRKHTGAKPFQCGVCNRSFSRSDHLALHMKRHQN
T2 sequence (Q13887 whole entry K369Q): as the sequence (Q13887 whole entry K369R) above, with R369Q counted along it

With CC(=O)Oc1ccccc1C(=O)Nc1ncc([N+](=O)[O-])s1 [Nitazoxanide] the “bone lesions (micro-CT)” value (PC-3-KQ-Luc cells; [2]) was “significantly reduced such lesions”, the “tumor area in the bone (H&E)” value (PC-3-KQ-Luc cells; [2]) was “significantly reduced the tumor area” and the BV/TV (PC-3-KQ-Luc cells; micro-CT of femurs) was “significantly increased”. The “Tb. N” value (PC-3-KQ-Luc cells; micro-CT of femurs) was “significantly increased”, the “Tb. Sp” value (PC-3-KQ-Luc cells; micro-CT of femurs) was “potently decreased” and the “Tb. Th” value (PC-3-KQ-Luc cells; micro-CT of femurs) was “significantly increased”. The bioluminescence intensities (PC-3-KQ-Luc cells; treatment from day 7 for 4 weeks, 100 mg/kg intragastric every day) was “sharply decreased bioluminescence intensities”, the “number of TRAP^+ cells in mouse femurs” value [1] was “significantly reduced the number of TRAP^+ cells” and the colony number (DU 145-KQ cells) was “reduced colony number”. The colony number (PC-3-KQ cells) was “reduced colony number”, the “number of TRAP^+ multinucleated cells” value (RAW264.7 cells) was “significantly reduced” and the Kd (KLF5^K369R protein) was 7.3 µM. It also gave a Kd (KLF5^K369Q protein) of 5.4 µM.
